Data on one compound can be found in patent EP0194794A2, “Saccharide digestion inhibiting composition” (Takeda Chemical Industries, Ltd., priority 1985, dated 1986).

Structures are written as SMILES. Marks after values point to notes of the source that are not given here.

The nature of one data set: Acute toxicity study. In kind it is in vivo, rats. The note with it: oral administration, 10 g/kg body weight. The text has this:
When this was mixed with 10^11 cells of any of the 3 different lactic acid producing bacteria used in the present invention and the mixture was orally administered at the same time as AO-128 (10 g/kg body weight), no influence was observed.

Data set [1] is described as follows: Property of feces in rats fed test ration, single organism (Reference Example 1). In kind it is in vivo, male Jcl:SD rats. The following applies: 36 to 48 hours. How it is done:
One gram of the mixture prepared in Example 1 and one gram of cells of lactic acid producing bacteria of a kind different from the bacteria used in Example 1 were mixed with 99 g of commercial powder feed (CE-2) to give a test ration. This ration was given to male Jcl:SD rats aged 7 weeks (6 animals per group) and the property of feces excreted after 36 to 48 hours was examined. Control animals received a mixture of 10 mg of AO-128 and 100 g of 'powder feed.

Data set [2] is described as follows: Influence on dietary hyperglycemia and hyperinsulinemia (Reference Example 3). In kind it is in vivo, male Jcl:SD rats. The following applies: mean ± SD, n=6. As to the method:
The rations prepared in the same manner as Reference Example 1 were given to 8-week-old male Jcl:SD rats (6 individuals per group) which had not been fed for 24 hours to investigate how the administration of lactic acid producing bacteria would influence the inhibitory effect of AO-128 on the hyperglycemia and hyperinsuleinemia following a diet intake.
Blood samples were collected from the tail vein immediately before feeding and 30, 60 and 120 minutes after feeding and the plasma glucose and insulin levels were determined.

A short description of data set [3]: Property of feces in rats fed test ration, 2 or more bacteria (Reference Example 2). The following applies: 36 to 48 hours. Type of data set: in vivo, Jcl:SD rats. As to the method: Using 2 or more different bacteria, test rations were prepared by the same procedure as Reference Example 1. However, the amount of potato starch was reduced to adjust for the volume increase due to the cells to provide a composition containing cells of AO-128 and the composition was mixed with feed. The resulting ration was given to 7-week-old Jcl:SD rats (5 animals per group) and the property of feces after 36 to 48 hours was observed. Control rats received a mixture of 10 mg of AO-128 and 100 g of powder feed.

A short description of data set [4]: 28-day feeding of rats with Zucker obesity (Reference Example 4). The note with it: ration fed for 28 days. Type of data set: in vivo, male rats with Zucker obesity. How it is done:
In the analysis for body fat, the liver, the adipose tissue of the epididymis, the digestive tract and its contents were removed and the remainder was used as a sample. The rations containing the bacterial cells were prepared every other day and fed.

`OCC(CO)N[C@H]1C[C@](O)(CO)[C@@H](O)[C@H](O)[C@H]1O` [AO-128, N-(1,3-Dihydroxy-2-propyl)valiolamine]: the “death in acute toxicity study” value in the data set “Acute toxicity study” is reported as “caused no death”. Also, the “Property of feces ±” value in data set [1] (number of rats (6 per group) with fecal masses, a diffusion of water noted on filter paper) is 0; in data set [3] (number of rats (5 per group) with fecal masses, diffusion of water on filter paper), 2. Further, the “Property of feces -” value in data set [1] (number of rats (6 per group) with fecal masses, no diffusion of water on filter paper) is 0; in data set [3] (number of rats (5 per group) with fecal masses, no diffusion of water on filter paper), 0. Besides, the “Property of feces +” value is recorded as 6 in data set [1] (number of rats (6 per group) with feces unformed (watery stool)) and 3 in data set [3] (number of rats (5 per group) with feces unformed (watery stool)). Besides, in data set [2] (30 minutes after feeding), the “Plasma glucose level 30 min.” value is 141± 8^a mg/dl. Besides, the “Plasma glucose level 60 min.” value in data set [2] (60 minutes after feeding) is 154±11^a mg/dl. Also, the “Plasma glucose level 120 min.” value in data set [2] (120 minutes after feeding) is listed as 152±11^a mg/dl. Moreover, the “Plasma glucose level 0 min.” value in data set [2] (immediately before feeding, rats not fed for 24 hours) worked out at 101 ± 10 mg/dL. For the same compound, the diarrhea in data set [4] (animals with diarrhea / animals in group) was 6/6. In addition, in data set [4] (carcass without liver, epididymal adipose tissue, digestive tract, n=6), the body fat is 19.8±5.4^b %. In addition, the body weight gain in data set [4] (mean ± SD, n=6) was 132±28^a g/28day. The food consumption in data set [4] (mean ± SD, n=6) is listed as 602±56^a g/28day. In data set [4] (mean ± SD, n=6), the food conversion was 21.9±3.6^b %.
